Laboratory results published in patent US10426775B2, “Methods for treating Friedreich's ataxia with etravirine” (Fratagene Therapeutics srl, priority 2017, dated 2019).
Residues, ends and D or L forms follow the SMILES beside them. *: point of attachment. Cbz = O=C(OCc1ccccc1)*

What was measured:
frataxin-ProLabel fusion = test: frataxin-ProLabel cell-based reporter assay (β-galactosidase enzyme fragment complementation), library screening; parameters: species or system human; conditions: frataxin-ProLabel transfected cells treated with MG132
Protocol: The FDA-approved drug library (SELLECKCHEM SCREENING LIBRARIES®) that was used in the screening was composed of 853 drugs. The library was provided in a total of ten 96-well plate, with the drugs at a stock concentration of 10 mM in dimethyl sulfoxide (DMSO). To evaluate the effect of drugs on frataxin abundance, we generated a fusion construct between frataxin and ProLabel that was used as a reporter in a cell-based assay. The system is based on […] enzyme fragment complementation (Eglen, 2002). […] Indeed, treatment of frataxin-ProLabel transfected cells with MG132 promotes frataxin accumulation, which results in a 5-fold increase in the intensity of the luminescence signal. […]
For the screening, HEK-293 cells were transiently transfected with pCMV-fxn-ProLabel. […] After 24 hours, the complementary β-galactosidase subunit and the substrate were added and chemiluminescence emission was measured by luminometer reading. […] The chemiluminescent signal was monitored over a period of 210 minutes. […]
To analyse the FDA-approved drug screening results, an arbitrary threshold was established for each plate as the average of the luminescence measured in all the wells of the plate plus 2 standard deviations. Luminescence signal from each well was then normalized on threshold value. […]

[1] = tested on: newly synthesized frataxin mRNA; test: Nascent frataxin transcripts (EU metabolic labeling, Click-iT capture, real-time PCR) in HEK293-fxn; assay type: cell-based, human; conditions: 10 μM, 4 or 8 hours
From the text: We then investigated whether the observed increase in frataxin protein levels is due to an upregulation of the frataxin mRNA, either promoted by an increase in the […] rate of frataxin mRNA or by its stabilization. To understand whether etravirine promotes de novo synthesis of frataxin mRNA, we metabolically labeled nascent transcripts through the incorporation of 5-ethynyl uridine (EU). Through a click chemistry-based reaction, biotin was then conjugated to EU-labelled transcripts, thus allowing selective isolation and analysis of newly synthesized mRNA. We therefore quantitatively analyzed the relative amount of newly synthesized frataxin mRNA in etravirine-treated HEK293-fxn cells, compared to untreated control cells. […] We then analyzed the effect of etravirine on the decay of frataxin transcript observed upon treatment with actinomycin. HEK293-fxn cells were treated with actinomycin for 4, 8 or 12 hours in the presence or absence of etravirine and frataxin mRNA was quantitated by RT-PCR.
HEK 293-fxn stably expressing frataxin (A), HEK 293 (B), or FRDA lymphoblast cell line GM16203 (C) were treated with 10 μM etravirine for the indicated time points. Protein extracts were resolved on SDS-PAGE and analyzed by western blot with anti-frataxin antibody and anti-tubulin as a loading control. Etr: etravirine; tub: tubulin; fxn pre: frataxin precursor. […]

CC(C)C[C@@H](C=O)NC(=O)[C@H](CC(C)C)NC(=O)[C@H](CC(C)C)NC(=O)OCc1ccccc1 [MG132] (Cbz-Leu-Leu-Leu-aldehyde)
increase in the intensity of the luminescence signal (frataxin-ProLabel fusion): 5 fold

O=C(CCCCCCC(=O)Nc1ccccc1)NO [Vorinostat]
relative amount of newly synthesized frataxin mRNA vs untreated control cells [1]: significantly upregulates
